Measurements: EP4722213A1, “NITROGEN-CONTAINING FUNCTIONAL GROUP-SUBSTITUTED PYRIDAZINOPYRIDONE DERIVATIVE AND USE THEREOF” (Sichuan Huiyu Pharmaceutical Co., Ltd., priority 2023, dated 2024)
pIC50: −log10 of the molar value. Like-named read-outs stand apart in the source and are kept apart here.

Tests used:
[1] = system: NCI-H358 non-small cell lung cancer cells; assay: Inhibition of NCI-H358 cell proliferation (CellTiter-Glo 3D, 7 days); type: cell-based; details: Homo sapiens, NCI-H358, 168 h, 3D microspheres, read-out: Inhibitory activity against NCI-H358 cell proliferation (IC50)
Summary of the method: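 NCI-H358 cells at 2000/well in ultra-low attachment plates grown overnight into spheroids, then exposed to 8-point 5-fold compound dilutions in RPMI-1640/10% FBS for 7 days at 37 °C. Viability by CellTiter-Glo 3D luminescence; inhibition relative to no-inhibitor and cell-free controls.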

[2] = Rat liver microsomal metabolic stability; type: in vitro ADME; details: rat liver microsomes; for half-life at 1 µM: NADPH, 37°C; for CLint scaled at 1 µM: calculated from T1/2, fu defaulted to 1, read-out: CL(liver)
Summary of the method: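 Rat liver microsomes (1 mg/mL working solution) with test compound (working solution 100 µM) were pre-incubated 5 min at 37 °C, then started with NADPH (4.0 mM working solution). Residual compound measured by LC-MS/MS over time. T1/2 taken from first-order decay, scaled to CLint and hepatic CL with fu = 1.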

[3] = biological target: T1, CYP2C19 (Homo sapiens, UniProt P33261); assay: Inhibition of hepatic drug-metabolizing enzymes in human liver microsomes; type: in vitro ADME; details: human liver microsomes; read-out: Inhibitory activity on drug-metabolizing enzymes (IC50, µM) CYP2C19
T1 construct: human liver microsomes were used as the CYP450 enzyme source; from tissue; host or cells: human liver microsomes
Source text: (§1) The main site of drug metabolism is the liver, and the main component of the mixed-function oxidase system present in the liver is the CYP450 enzyme. This enzyme system causes most clinically observed drug-drug interactions, which in turn leads to an increased incidence of adverse drug reactions. CYP450 is a group of supergene family composed of many isozymes, wherein CYP3A4 acts as a major metabolizing enzyme and is involved in the metabolism of nearly half of clinically used drugs. Similarly, CYP2C9 and CYP2C19 also act as important metabolizing enzymes and are involved in the metabolism of various drugs clinically. Therefore, evaluating the risk of drug-drug interactions by testing the inhibitory activity of compounds on CYP450 enzymes at an early stage can improve the safety of medication use.
(§2) In the present disclosure, human liver microsomes were used as the CYP450 enzyme source. The specific probe substrates for each CYP isoenzyme (wherein CYP3A4 used two substrates, midazolam and testosterone, denoted as CYP3A4-M and CYP3A4-T respectively) were incubated with a series of concentrations of the test compound in the presence of the cofactor NADPH. The production amount of metabolites of probe substrates in the incubation system was determined by LC-MS/MS, and the IC50 values of the test compound against each CYP450 enzyme subtype were calculated to evaluate its inhibitory effect on each CYP450 enzyme subtype. During the experiment, 49 µL of PBS, 50 µL of probe substrate, and 50 µL of human liver microsome working solution were sequentially added to the incubation system, followed by the addition of 1 µL of the test compound working solution at each concentration, and the mixture was mixed well. After pre-incubation at 37°C for 5 min, 50 µL of NADPH was added to initiate the reaction. After incubation for the corresponding time, an appropriate amount of ice-cold acetonitrile containing an internal standard was added to terminate the reaction. The mixture was vortexed to mix well, centrifuged, and the supernatant was taken. The supernatant was injected into LC-MS/MS to determine the production amount of metabolites of the probe substrate. Taking the enzyme activity at the 0-concentration point (characterized by the production amount of metabolites) as 100%, the percentage of residual enzyme activity of metabolites at different concentrations of the test compound was calculated. IC50 was calculated by the residual enzyme activity using Graphpad Prism software.

[4] = biological target: T2, CYP2C9 (Homo sapiens, UniProt P11712); assay: as above; type: in vitro ADME; details: human liver microsomes; read-out: Inhibitory activity on drug-metabolizing enzymes (IC50, µM) CYP2C9
T2 construct: human liver microsomes were used as the CYP450 enzyme source; from tissue; host or cells: human liver microsomes
Source text: as §1, §2

[5] = biological target: T3, CYP3A4 (Homo sapiens, UniProt P08684); assay: Inhibition of hepatic drug-metabolizing enzymes in human liver microsomes (substrates midazolam and testosterone); type: in vitro ADME
T3 construct: human liver microsomes were used as the CYP450 enzyme source; from tissue; host or cells: human liver microsomes
Source text: as §1, §2

[6] = substrate midazolam, read-out: Inhibitory activity on drug-metabolizing enzymes (IC50, µM) CYP3A4-M
[7] = substrate testosterone, read-out: Inhibitory activity on drug-metabolizing enzymes (IC50, µM) CYP3A4-T

T1 sequence (P33261 whole entry): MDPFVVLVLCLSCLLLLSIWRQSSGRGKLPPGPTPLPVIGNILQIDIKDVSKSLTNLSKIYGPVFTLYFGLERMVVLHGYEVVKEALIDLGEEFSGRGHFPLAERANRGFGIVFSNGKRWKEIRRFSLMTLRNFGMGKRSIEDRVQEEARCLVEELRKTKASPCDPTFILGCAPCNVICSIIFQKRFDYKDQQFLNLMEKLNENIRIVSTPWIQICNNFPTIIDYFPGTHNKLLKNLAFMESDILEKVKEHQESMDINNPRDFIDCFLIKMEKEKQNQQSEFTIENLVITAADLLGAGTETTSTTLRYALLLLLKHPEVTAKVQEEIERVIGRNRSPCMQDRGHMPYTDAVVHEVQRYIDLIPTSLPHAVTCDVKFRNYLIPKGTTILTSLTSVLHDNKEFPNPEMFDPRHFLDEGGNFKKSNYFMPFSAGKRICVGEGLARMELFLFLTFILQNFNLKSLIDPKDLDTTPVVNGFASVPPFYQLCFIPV
T2 sequence (P11712 whole entry): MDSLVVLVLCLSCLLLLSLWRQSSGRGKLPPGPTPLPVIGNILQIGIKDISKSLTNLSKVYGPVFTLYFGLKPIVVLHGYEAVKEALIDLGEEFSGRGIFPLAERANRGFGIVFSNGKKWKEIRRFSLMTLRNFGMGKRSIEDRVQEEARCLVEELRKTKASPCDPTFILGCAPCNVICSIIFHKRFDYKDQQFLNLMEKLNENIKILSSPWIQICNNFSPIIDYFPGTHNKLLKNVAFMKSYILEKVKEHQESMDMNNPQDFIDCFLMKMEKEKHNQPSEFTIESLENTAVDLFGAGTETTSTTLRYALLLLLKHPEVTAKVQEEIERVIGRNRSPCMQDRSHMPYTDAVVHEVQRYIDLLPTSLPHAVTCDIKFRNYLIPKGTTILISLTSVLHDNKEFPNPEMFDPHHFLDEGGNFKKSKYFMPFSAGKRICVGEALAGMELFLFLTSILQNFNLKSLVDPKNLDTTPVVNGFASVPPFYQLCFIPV
T3 sequence (P08684 whole entry): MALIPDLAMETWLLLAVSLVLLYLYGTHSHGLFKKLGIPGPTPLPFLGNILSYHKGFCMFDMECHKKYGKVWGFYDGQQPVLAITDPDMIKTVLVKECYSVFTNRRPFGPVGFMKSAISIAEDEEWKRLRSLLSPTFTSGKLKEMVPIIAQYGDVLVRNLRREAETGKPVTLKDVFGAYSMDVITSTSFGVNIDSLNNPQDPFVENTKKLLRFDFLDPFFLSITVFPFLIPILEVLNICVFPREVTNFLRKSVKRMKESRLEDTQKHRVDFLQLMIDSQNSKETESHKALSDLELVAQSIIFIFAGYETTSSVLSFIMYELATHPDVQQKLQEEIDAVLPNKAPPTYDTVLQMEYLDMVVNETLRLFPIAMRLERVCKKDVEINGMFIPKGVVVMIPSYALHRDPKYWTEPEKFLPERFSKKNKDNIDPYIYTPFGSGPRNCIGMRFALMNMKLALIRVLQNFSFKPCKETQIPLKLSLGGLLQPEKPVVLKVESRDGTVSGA

Row | Structure (SMILES) | pIC50 [1] | half-life at 1 µM [2] | CLint scaled at 1 µM [2] | IC50 [3] | IC50 [4] | IC50 [5, 6] | IC50 [5, 7]
1 | CNc1nnc(N[C@H](C)c2cccc(C(F)(F)F)c2C)c2cn(C3CC3)c(=O)cc12 [Example 52, (R)-6-cyclopropyl-4-((1-(2-methyl-3-(trifluoromethyl)phenyl)ethyl)amino)-1-(methylamino)pyrid o[3,4-d]pyridazin-7(6H)-one] | 7.21 | 1.41 h | 19.2 mL/min/kg | > 10 µM | > 10 µM | > 10 µM | > 10 µM
2 | CCN1CCN(c2nnc(N[C@H](C)c3cccc(C(F)F)c3F)c3cn(C4CC(F)(F)C4)c(=O)cc23)CC1 [Example 98, (R)-6-(3,3-difluorocyclobutyl)-4-((1-(3-(difluoromethyl)-2-fluorophenyl)ethyl)amino)-1-(4-ethylpiperazin-1-yl)pyrido[3,4-d]pyridazin-7(6H)-one] | 7.42 | 3.12 h | 10.8 mL/min/kg | > 10 µM | > 10 µM | > 10 µM | > 10 µM
3 | C[C@@H](Nc1nnc(N2CCN(C)CC2)c2cc(=O)n(N3CCOCC3)cc12)c1cccc(C(F)F)c1F [Example 110, (R)-4-((1-(3-(difluoromethyl)-2-fluorophenyl)ethyl)amino)-1-(4-methylpiperazin-1-yl)-6-morpholinopyrido[3 ,4-d]pyridazin-7(6H)-one] | 8.02 | > 5 h | < 7.23 mL/min/kg | > 10 µM | > 10 µM | > 10 µM | > 10 µM
4 | CNc1nnc(N[C@H](C)c2cccc(C(F)F)c2F)c2cn(C3(C)CC3)c(=O)cc12.O=CO [Example 9, (R)-4-((1-(3-(difluoromethyl)-2-fluorophenyl)ethyl)amino)-1-(methylamino)-6-(1-methylcyclopropyl) pyrido[3,4-d]pyridazin-7(6H)-one formate] | 7.37 | 4.33 h | 8.2 mL/min/kg | > 10 µM | > 10 µM | > 10 µM | > 10 µM
5 | C[C@@H](Nc1nnc(N2CCN(C)CC2)c2cc(=O)n(C3(C)CC3)cc12)c1cccc(C(F)F)c1F.O=CO [Example 80, (R)-4-((1-(3-(difluoromethyl)-2-fluorophenyl)ethyl)amino)-6-(1-methylcyclopropyl)-1-(4-methylpiperazin-1-yl)pyrido[3,4-d]pyridazin-7(6H)-one formate] | 7.68 | 2.68 h | 12.1 mL/min/kg | > 10 µM | > 10 µM | > 10 µM | > 10 µM
6 | CCN1CCN(c2nnc(N[C@H](C)c3cccc(C(F)F)c3F)c3cn(C4CCC4)c(=O)cc23)CC1 [Example 112, (R)-6-cyclobutyl-4-((1-(3-(difluoromethyl)-2-fluorophenyl)ethyl)amino)-1-(4-ethylpiperazin-1-yl)pyrido[3,4-d]pyridazin-7(6H)-one] | 7.69 | 3.32 h | 10.2 mL/min/kg | > 10 µM | > 10 µM | > 10 µM | > 10 µM
7 | C[C@@H](Nc1nnc(N2CCN(C(C)(C)C)CC2)c2cc(=O)n(C3(C)CC3)cc12)c1cccc(C(F)F)c1F.O=CO [Example 222, (R)-1-(4-(tert-butyl)piperazin-1-yl)-4-((1-(3-(difluoromethyl)-2-fluorophenyl)ethyl)amino)-6-(1-methylcyclopropyl) pyrido[3,4-d]pyridazin-7(6H)-one formate] | 7.48 | 3.63 h | 9.47 mL/min/kg | > 10 µM | > 10 µM | > 10 µM | > 10 µM
8 | CCN1CCN(c2nnc(N[C@H](C)c3cccc(C(F)F)c3F)c3cn(C4(C)CC4)c(=O)cc23)CC1 [Example 216, (R)-4-((1-(3-(difluoromethyl)-2-fluorophenyl)ethyl)amino)-1-(4-ethylpiperazin-1-yl)-6-(1-methylcyclopropyl) pyrido[3,4-d]pyridazin-7(6H)-one] | 7.44 | 4.85 h | 7.43 mL/min/kg | > 10 µM | > 10 µM | > 10 µM | > 10 µM
9 | C[C@@H](Nc1nnc(N2CCN(C3CCCC3)CC2)c2cc(=O)n(N3CCOCC3)cc12)c1cccc(C(F)F)c1F [Example 120, (R)-4-((1-(3-(difluoromethyl)-2-fluorophenyl)ethyl)amino)-1-(4-cyclopentylpiperazin-1-yl)-6-morpholinopyrido[3 ,4-d]pyridazin-7(6H)-one] | 7.60 | > 5 h | < 7.23 mL/min/kg | > 10 µM | > 10 µM | > 10 µM | > 10 µM
10 | CC(C)Nc1nnc(N[C@H](C)c2cccc(C(F)F)c2F)c2cn(C3(C)CC3)c(=O)cc12.O=CO [Example 12, (R)-4-((1-(3-(difluoromethyl)-2-fluorophenyl)ethyl)amino)-1-(isopropylamino)-6-(1-methylcyclopropyl) pyrido[3,4-d]pyridazin-7(6H)-one formate] | 7.44 | 2.5 h | 12.8 mL/min/kg | > 10 µM | > 10 µM | > 10 µM | > 10 µM
11 | CC(C)N1CCN(c2nnc(N[C@H](C)c3cccc(C(F)F)c3F)c3cn(C4(C)CC4)c(=O)cc23)CC1 [Example 217, (R)-4-((1-(3-(difluoromethyl)-2-fluorophenyl)ethyl)amino)-1-(4-isopropylpiperazin-1-yl)-6-(1-methylcyclopropyl) pyrido[3,4-d]pyridazin-7(6H)-one] | 7.33 | 4.33 h | 8.18 mL/min/kg | > 10 µM | > 10 µM | > 10 µM | > 10 µM
12 | CCN1CCN(c2nnc(N[C@H](C)c3cccc(C(F)F)c3F)c3cn(N4CCOCC4)c(=O)cc23)CC1 [Example 109, (R)-4-((1-(3-(difluoromethyl)-2-fluorophenyl)ethyl)amino)-1-(4-ethylpiperazin-1-yl)-6-morpholinopyrido[3 ,4-d]pyridazin-7(6H)-one] | 7.78 | > 5 h | < 7.23 mL/min/kg | > 10 µM | > 10 µM | > 10 µM | > 10 µM
13 | CNc1nnc(N[C@H](C)c2cccc(C(F)(F)F)c2C)c2cn(C3(C)CC3)c(=O)cc12 [Example 73, (R)-4-((1-(2-methyl-3-(trifluoromethyl)phenyl)ethyl)amino)-1-(methylamino)-6-(1-methylcyclopropyl) pyrido[3,4-d]pyridazin-7(6H)-one] | 7.83 | 1.59 h | 17.7 mL/min/kg | > 10 µM | > 10 µM | > 10 µM | > 10 µM
14 | C[C@@H](Nc1nnc(N2CCN(C)CC2)c2cc(=O)n(C3CCC3)cc12)c1cccc(C(F)F)c1F [Example 88, (R)-6-cyclobutyl-4-((1-(3-(difluoromethyl)-2-fluorophenyl)ethyl)amino)-1-(4-methylpiperazin-1-yl)pyrido[3,4-d]pyridazin-7(6H)-one] | 7.64 | 2.13 h | 14.4 mL/min/kg | > 10 µM | > 10 µM | > 10 µM | > 10 µM
